Laboratory results from US10787481B2, “Sugar-dipeptide conjugates as flavor molecules” (NESTEC S.A., priority 2015, dated 2020).
Like-named read-outs stand apart in the source and are kept apart here.

What was measured:
[1] = tested on: sensory panel; assay: Taste threshold concentration in model broth (sensory panel, triangle test); format: in vivo, human; conditions: versus β-alanyl-L-glycine
Protocol: The sensory tests were performed in a sensory panel room at 20-25° C. To avoid a retro-nasal aroma or taste impression, nose clips were used. The sensory panel consisted of 8 to 14 trained persons. The panel was trained to evaluate the taste of aqueous solutions (1 mL each) of the following standard taste compounds by using a triangle test: saccharose (50 mmol/L) and L-alanine (15 mmol/L), respectively, for sweet taste; lactic acid (20 mmol/L) for sour taste; NaCl (12 mmol/L) for salty taste; caffeine (1 mmol/L) and quinine hydrochloride (0.05 mmol/L), respectively, for bitter taste; sodium glutamate (8 mmol/L, pH 5.7) for umami taste; and tannin (0.05%) for astringency. The “white meaty” oral sensations was assessed in a model broth solution prepared from monosodium glutamate monohydrate (1.9 g/L), yeast extract (2.1 g/L), maltodextrin (6.375 g/L) and sodium chloride (2.9 g/L) in bottled water (pH 5.9).

[2] = tested on: sensory panel; conditions: tomato soup; compound at 2 g/L
[3] = tested on: sensory panel; conditions: chicken soup with 1 g monosodium glutamate in 500 mL; compound at 2 g/L; 12 panelists
Protocol: Chicken soups were prepared by dissolving 6 g chicken base powder (detailed recipe shown in Table 1) and 1 g monosodium glutamate in 500 mL hot water.
The sensory evaluation was carried out by 12 panelists, previously screened for their sensory abilities.

O=C(O)CNC(=O)CCNCC(=O)[C@@H](O)[C@H](O)[C@H](O)CO
lowering of the taste threshold molar concentration by a factor [1]: about 4 | sensory difference described by panel [2]: increased the savory, fatty and spicy notes | sensory difference described by panel [3]: increased the spicy, savory and meaty flavours
